{
  "source": "ChEMBL document CHEMBL4359863",
  "about": "“Structure-guided development of purine amide, hydroxamate, and amidoxime for the inhibition of non-small cell lung cancer” (Eur J Med Chem, 2019)",
  "key": {"Tubulin (Homo sapiens) [1]": {"target": "T1, Tubulin (Homo sapiens) (UniProt P68371+Q9H4B7+P0DPH7+P68366+Q13509+Q71U36+P04350+Q3ZCM7+P07437+P68363+Q9BQE3+Q6PEY2+Q13885+Q9BVA1+Q9BUF5)", "test": "Induction of microtubule fragmentation in human NCI-H1975 cells at 50 nM incubated for 12 hrs by DAPI staining based laser confocal microscopic method", "type": "cell-based"}, "Tubulin (Homo sapiens) [2]": {"target": "T1, Tubulin (Homo sapiens)", "test": "Induction of microtubule fragmentation in human NCI-H1975 cells at 30 nM incubated for 12 hrs by DAPI staining based laser confocal microscopic method", "type": "cell-based"}, "[3]": {"target": "Katanin p60 ATPase-containing subunit A1 (Homo sapiens) (UniProt O75449)", "sequence (O75449 whole entry)": "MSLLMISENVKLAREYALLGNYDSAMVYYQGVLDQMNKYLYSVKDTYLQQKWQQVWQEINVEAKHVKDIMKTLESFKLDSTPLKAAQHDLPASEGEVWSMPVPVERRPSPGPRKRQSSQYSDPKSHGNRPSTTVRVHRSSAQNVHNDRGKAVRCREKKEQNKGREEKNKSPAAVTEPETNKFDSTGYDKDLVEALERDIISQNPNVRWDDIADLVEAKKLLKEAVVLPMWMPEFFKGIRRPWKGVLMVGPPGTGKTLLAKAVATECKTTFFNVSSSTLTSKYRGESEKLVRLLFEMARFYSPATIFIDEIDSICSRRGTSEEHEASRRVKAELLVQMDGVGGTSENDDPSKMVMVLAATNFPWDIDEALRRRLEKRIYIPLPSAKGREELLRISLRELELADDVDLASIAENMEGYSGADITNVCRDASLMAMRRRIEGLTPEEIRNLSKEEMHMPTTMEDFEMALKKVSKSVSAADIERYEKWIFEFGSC", "test": "Binding affinity to katanin p60 in human NCI-H1975 cells using biotin labelled compound incubated for 16 hrs by streptavidin based immunoprecipitation method", "type": "cell-based"}, "Tubulin (Homo sapiens) [4]": {"target": "T1, Tubulin (Homo sapiens)", "test": "Induction of microtubule fragmentation in human NCI-H1975 cells at 140 nM incubated for 12 hrs by DAPI staining based laser confocal microscopic method", "type": "cell-based"}, "NCI-H1975": {"test_system": "NCI-H1975", "test": "Antiproliferative activity against human NCI-H1975 cells incubated for 48 hrs by celltiter-Glo assay", "type": "functional, cell-based", "conditions": "NCI-H1975, 48 h"}},
  "note": "Active and inactive are the calls of the source. The calls are words filed in the database; no cut-off is given here.",
  "data": [
    {"compound": "CCOc1ccc(-c2nc(/C(N)=N/O)c3[nH]c(=O)n(-c4ccccc4OC)c3n2)cc1", "values": [
      {"measurement": "Activity", "setting": "Tubulin (Homo sapiens) [1]", "value": "Active"}
    ]},
    {"compound": "CCOc1ccc(-c2nc(C(N)=O)c3[nH]c(=O)n(-c4ccccc4OC)c3n2)cc1", "values": [
      {"measurement": "Activity", "setting": "Tubulin (Homo sapiens) [2]", "value": "Active"}
    ]},
    {"compound": "CCOc1ccc(-c2nc(C(N)=O)c3[nH]c(=O)n(-c4cccc(C(=O)NCCCCCNC(=O)CCCC[C@@H]5SC[C@@H]6NC(=O)N[C@@H]65)c4)c3n2)cc1", "values": [
      {"measurement": "Activity", "setting": "[3]", "value": "Active"}
    ]},
    {"compound": "CCOc1ccc(-c2nc(/C(N)=N/O)c3[nH]c(=O)n(-c4cccc(C(=O)NCCCCCNC(=O)CCCC[C@@H]5SC[C@@H]6NC(=O)N[C@@H]65)c4)c3n2)cc1", "values": [
      {"measurement": "Activity", "setting": "[3]", "value": "Active"}
    ]},
    {"compound": "CCOc1ccc(-c2nc(C(=O)NO)c3[nH]c(=O)n(-c4ccccc4OC)c3n2)cc1", "values": [
      {"measurement": "Activity", "setting": "Tubulin (Homo sapiens) [4]", "value": "Active"}
    ]},
    {"compound": "CC(C)(C)OC(=O)NCCCCCNC(=O)CCCC[C@@H]1SC[C@@H]2NC(=O)N[C@@H]21", "values": [
      {"measurement": "Activity", "setting": "[3]", "value": "inactive"}
    ]},
    {"compound": "COc1ccccc1-n1c(=O)[nH]c2c(C(N)=O)nc(-c3ccc4c(c3)OCO4)nc21", "values": [
      {"measurement": "IC50", "setting": "NCI-H1975", "value": 7.6, "unit": "µM"}
    ]}
  ]
}
